Reference: PubChem BioAssay AID1963986 (Molecular Pharmacology Branch, DTP, NCI, 2024)

Tested on: 171881-019-R-J1-PDC tumor spheroid viability
Assay: Anticancer human tumor 171881-019-R-J1-PDC patient-derived invasive breast carcinoma cell line growth inhibition [PI3K]
Conditions: spheroids with HUVEC and MSC; for IC50: curve of first compound; for viability, T/C: stronger effect = lower value
Method in brief: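 Agents were dosed from a top concentration near clinical Cmax (otherwise 10 microM) in half-log decrements, alone or combined with PI3K inhibitors. The spheroids contain tumor cells plus endothelial (HUVEC) and MSC stroma; viability is measured.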

[1] = second compound 0.00316 µM, first compound 0.0316 µM
[2] = second compound 0.00316 µM, first compound 0.1 µM
[3] = second compound 0.01 µM, first compound 0.0316 µM
[4] = second compound 0.01 µM, first compound 0.1 µM
[5] = second compound 0.0316 µM, first compound 0.0316 µM
[6] = second compound 0.0316 µM, first compound 0.1 µM
[7] = second compound 0.1 µM, first compound 0.0316 µM
[8] = second compound 0.1 µM, first compound 0.1 µM
[9] = second compound 0.316 µM, first compound 0.0316 µM
[10] = second compound 0.316 µM, first compound 0.1 µM
[11] = second compound 1 µM, first compound 0.0316 µM
[12] = second compound 1 µM, first compound 0.1 µM
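Further: spheroids exposed to compound for 7 days before viability read.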
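Wherever viability, T/C is given: 100% = DMSO vehicle-treated spheroids.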

**Q.** How did the IC50 (second compound 0.00316 µM) turn out when `CC(=O)c1c(C)c2cnc(Nc3ccc(N4CCNCC4)cn3)nc2n(C2CCCC2)c1=O` + COc1c(OCCCN2CCOCC2)ccc2c3n(c(=NC(=O)c4cnc(N)nc4)nc12)CCN3 was run?
**A.** Its IC50 is over 100 nM.

**Q.** And the IC50 (second compound 0.01 µM)?
**A.** The IC50 was under 0.316 nM.

**Q.** What about the IC50 (second compound 0.0316 µM) of the same molecule?
**A.** Its IC50 is under 0.316 nM.

**Q.** And the IC50 (second compound 0.1 µM)?
**A.** Its IC50 is under 0.316 nM.

**Q.** And the IC50 (second compound 0.316 µM)?
**A.** Its IC50 is under 0.316 nM.

**Q.** What about the IC50 (second compound 1 µM) of the same molecule?
**A.** The IC50 was under 0.316 nM.

**Q.** And the viability, T/C (second compound 0.00316 µM, first compound 0.000316 µM)?
**A.** The viability, T/C was 64.3%.

**Q.** What about the viability, T/C (second compound 0.00316 µM, first compound 0.001 µM) of the same molecule?
**A.** Its viability, T/C is 63.9%.

**Q.** And the viability, T/C (second compound 0.00316 µM, first compound 0.00316 µM)?
**A.** Its viability, T/C is 65.5%.

**Q.** And the viability, T/C (second compound 0.00316 µM, first compound 0.01 µM)?
**A.** The viability, T/C was 73%.

**Q.** And the viability, T/C [1]?
**A.** Its viability, T/C is 65%.

**Q.** What about the viability, T/C [2] of the same molecule?
**A.** The viability, T/C was 70.4%.

**Q.** What about the viability, T/C (second compound 0.01 µM, first compound 0.000316 µM) of the same molecule?
**A.** Its viability, T/C is 48.1%.

**Q.** And the viability, T/C (second compound 0.01 µM, first compound 0.001 µM)?
**A.** Its viability, T/C is 53.9%.

**Q.** And the viability, T/C (second compound 0.01 µM, first compound 0.00316 µM)?
**A.** Its viability, T/C is 52.2%.

**Q.** What about the viability, T/C (second compound 0.01 µM, first compound 0.01 µM) of the same molecule?
**A.** The viability, T/C was 55.1%.

**Q.** What about the viability, T/C [3] of the same molecule?
**A.** The viability, T/C was 57.9%.

**Q.** And the viability, T/C [4]?
**A.** The viability, T/C was 58.5%.

**Q.** And the viability, T/C (second compound 0.0316 µM, first compound 0.000316 µM)?
**A.** Its viability, T/C is 20.7%.

**Q.** And the viability, T/C (second compound 0.0316 µM, first compound 0.001 µM)?
**A.** Its viability, T/C is 25%.

**Q.** And the viability, T/C (second compound 0.0316 µM, first compound 0.00316 µM)?
**A.** Its viability, T/C is 26.8%.

**Q.** And the viability, T/C (second compound 0.0316 µM, first compound 0.01 µM)?
**A.** Its viability, T/C is 27%.

**Q.** What about the viability, T/C [5] of the same molecule?
**A.** The viability, T/C was 28.5%.

**Q.** What about the viability, T/C [6] of the same molecule?
**A.** Its viability, T/C is 27.9%.

**Q.** What about the viability, T/C (second compound 0.1 µM, first compound 0.000316 µM) of the same molecule?
**A.** The viability, T/C was 6.71%.

**Q.** What about the viability, T/C (second compound 0.1 µM, first compound 0.001 µM) of the same molecule?
**A.** Its viability, T/C is 6.39%.

**Q.** What about the viability, T/C (second compound 0.1 µM, first compound 0.00316 µM) of the same molecule?
**A.** Its viability, T/C is 8.12%.

**Q.** What about the viability, T/C (second compound 0.1 µM, first compound 0.01 µM) of the same molecule?
**A.** Its viability, T/C is 7.28%.

**Q.** What about the viability, T/C [7] of the same molecule?
**A.** The viability, T/C was 8.51%.

**Q.** And the viability, T/C [8]?
**A.** The viability, T/C was 7.44%.

**Q.** And the viability, T/C (second compound 0.316 µM, first compound 0.000316 µM)?
**A.** Its viability, T/C is 1.58%.

**Q.** And the viability, T/C (second compound 0.316 µM, first compound 0.001 µM)?
**A.** The viability, T/C was 2.19%.

**Q.** And the viability, T/C (second compound 0.316 µM, first compound 0.00316 µM)?
**A.** Its viability, T/C is 1.53%.

**Q.** And the viability, T/C (second compound 0.316 µM, first compound 0.01 µM)?
**A.** The viability, T/C was 1.61%.

**Q.** And the viability, T/C [9]?
**A.** Its viability, T/C is 1.59%.

**Q.** And the viability, T/C [10]?
**A.** Its viability, T/C is 1.7%.

**Q.** And the viability, T/C (second compound 1 µM, first compound 0.000316 µM)?
**A.** Its viability, T/C is 1.49%.

**Q.** And the viability, T/C (second compound 1 µM, first compound 0.001 µM)?
**A.** The viability, T/C was 1.21%.

**Q.** What about the viability, T/C (second compound 1 µM, first compound 0.00316 µM) of the same molecule?
**A.** The viability, T/C was 1.21%.

**Q.** And the viability, T/C (second compound 1 µM, first compound 0.01 µM)?
**A.** The viability, T/C was 1.26%.

**Q.** And the viability, T/C [11]?
**A.** The viability, T/C was 1.35%.

**Q.** What about the viability, T/C [12] of the same molecule?
**A.** Its viability, T/C is 1.32%.

**Q.** What does the source list for `CCCS(=O)(=O)Nc1ccc(F)c(C(=O)c2c[nH]c3ncc(-c4ccc(Cl)cc4)cc23)c1F` + COc1c(OCCCN2CCOCC2)ccc2c3n(c(=NC(=O)c4cnc(N)nc4)nc12)CCN3?
**A.** IC50 (second compound 0.00316 µM): 5730 nM; IC50 (second compound 0.01 µM): 4520 nM; IC50 (second compound 0.0316 µM): < 31.6 nM; IC50 (second compound 0.1 µM): < 31.6 nM; IC50 (second compound 0.316 µM): < 31.6 nM; IC50 (second compound 1 µM): < 31.6 nM; viability, T/C [1]: 70.6%; viability, T/C [2]: 81.9%; viability, T/C (second compound 0.00316 µM, first compound 0.316 µM): 94.3%; viability, T/C (second compound 0.00316 µM, first compound 1 µM): 108%; viability, T/C (second compound 0.00316 µM, first compound 3.16 µM): 93.7%; viability, T/C (second compound 0.00316 µM, first compound 10 µM): 12.9%; viability, T/C [3]: 53.8%; viability, T/C [4]: 60%; viability, T/C (second compound 0.01 µM, first compound 0.316 µM): 67.2%; viability, T/C (second compound 0.01 µM, first compound 1 µM): 83.6%; viability, T/C (second compound 0.01 µM, first compound 3.16 µM): 76.5%; viability, T/C (second compound 0.01 µM, first compound 10 µM): 9.83%; viability, T/C [5]: 29%; viability, T/C [6]: 29.3%; viability, T/C (second compound 0.0316 µM, first compound 0.316 µM): 32%; viability, T/C (second compound 0.0316 µM, first compound 1 µM): 40.5%; viability, T/C (second compound 0.0316 µM, first compound 3.16 µM): 45.8%; viability, T/C (second compound 0.0316 µM, first compound 10 µM): 5.59%; viability, T/C [7]: 9.3%; viability, T/C [8]: 10.5%; viability, T/C (second compound 0.1 µM, first compound 0.316 µM): 10.9%; viability, T/C (second compound 0.1 µM, first compound 1 µM): 13.9%; viability, T/C (second compound 0.1 µM, first compound 3.16 µM): 17.3%; viability, T/C (second compound 0.1 µM, first compound 10 µM): 2.6%; viability, T/C [9]: 2.18%; viability, T/C [10]: 2.42%; viability, T/C (second compound 0.316 µM, first compound 0.316 µM): 3.05%; viability, T/C (second compound 0.316 µM, first compound 1 µM): 2.63%; viability, T/C (second compound 0.316 µM, first compound 3.16 µM): 3.95%; viability, T/C (second compound 0.316 µM, first compound 10 µM): 2.09%; viability, T/C [11]: 1.32%; viability, T/C [12]: 1.32%; viability, T/C (second compound 1 µM, first compound 0.316 µM): 1.47%; viability, T/C (second compound 1 µM, first compound 1 µM): 1.16%; viability, T/C (second compound 1 µM, first compound 3.16 µM): 1.64%; viability, T/C (second compound 1 µM, first compound 10 µM): 3.34%
